Experimental data: ChEMBL document CHEMBL1201862, “PubChem BioAssay data set” (2004)
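The compound was tested at five concentrations on cells cultured in 96-well plates, with a 48-hour exposure period. GI50 = concentration required for 50% inhibition of growth.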 Active and inactive are the calls of the source. Cut-off read from the data, not from the text of the source: active = GI50 up to about 1.1 µM and inactive = higher.

Legend:
Assay in all cases: NCI anticancer screen, dose series, 48 h
OVCAR-3 = system: OVCAR-3
CCRF-CEM = system: CCRF-CEM
T47D = system: T47D
NCI-H460 = system: NCI-H460
KM12 = system: KM12
UO-31 = system: UO-31
TK-10 = system: TK-10
A549 = system: A549
MDA-N = system: MDA-N
SN12C = system: SN12C
ACHN = system: ACHN
K562 = system: K562
SW-620 = system: SW-620
HOP-62 = system: HOP-62
OVCAR-5 = system: OVCAR-5
NCI-H226 = system: NCI-H226
OVCAR-8 = system: OVCAR-8
RPMI-8226 = system: RPMI-8226
HCT-116 = system: HCT-116
MDA-MB-435 = system: MDA-MB-435
786-0 = system: 786-0
NCI-H23 = system: NCI-H23
PC-3 = system: PC-3
MDA-MB-231 = system: MDA-MB-231
UACC-62 = system: UACC-62
IGROV-1 = system: IGROV-1
MOLT-4 = system: MOLT-4
DU-145 = system: DU-145
SNB-75 = system: SNB-75
HT-29 = system: HT-29
U-251 = system: U-251
SF-268 = system: SF-268
SR = system: SR
SK-MEL-28 = system: SK-MEL-28
SF-295 = system: SF-295
Hs-578T = system: Hs-578T
SNB-19 = system: SNB-19
COLO 205 = system: COLO 205
CAKI-1 = system: CAKI-1
UACC-257 = system: UACC-257
RXF 393 = system: RXF 393
M14 = system: M14
A498 = system: A498
SF-539 = system: SF-539
MCF7 = system: MCF7
HCT-15 = system: HCT-15
EKVX = system: EKVX
SK-MEL-2 = system: SK-MEL-2
BT-549 = system: BT-549
HL-60 = system: HL-60
SK-MEL-5 = system: SK-MEL-5
NCI/ADR-RES = system: NCI/ADR-RES
OVCAR-4 = system: OVCAR-4
Malme-3M = system: Malme-3M
HOP-92 = system: HOP-92
SK-OV-3 = system: SK-OV-3
LOX IMVI = system: LOX IMVI
HCC 2998 = system: HCC 2998
NCI-H522 = system: NCI-H522

Measured: GI50

Cn1ncc2[nH]cnc2c1=S
inactive: OVCAR-3 > 100 µM | CCRF-CEM 19.8 µM | T47D > 100 µM | NCI-H460 > 100 µM | KM12 > 100 µM | UO-31 > 100 µM | TK-10 > 100 µM | A549 > 100 µM | MDA-N > 100 µM | SN12C > 100 µM | ACHN > 100 µM | K562 50.7 µM | SW-620 > 100 µM | HOP-62 > 100 µM | OVCAR-5 > 100 µM | NCI-H226 > 100 µM | OVCAR-8 > 100 µM | RPMI-8226 34.8 µM | HCT-116 > 100 µM | MDA-MB-435 > 100 µM | 786-0 > 100 µM | NCI-H23 > 100 µM | PC-3 > 100 µM | MDA-MB-231 > 100 µM | UACC-62 > 100 µM | IGROV-1 > 100 µM | MOLT-4 43.8 µM | DU-145 > 100 µM | SNB-75 86.1 µM | HT-29 57.7 µM | U-251 > 100 µM | SF-268 > 100 µM | SR 26.7 µM | SK-MEL-28 > 100 µM | SF-295 > 100 µM | Hs-578T > 100 µM | SNB-19 > 100 µM | COLO 205 47.5 µM | CAKI-1 > 100 µM | UACC-257 > 100 µM | RXF 393 > 100 µM | M14 > 100 µM | A498 > 100 µM | SF-539 > 100 µM | MCF7 79.3 µM | EKVX > 100 µM | SK-MEL-2 > 100 µM | BT-549 > 100 µM | SK-MEL-5 82.4 µM | NCI/ADR-RES > 100 µM
> 100 µM: HCT-15
active: HL-60 0.541 µM

Cc1nc(-c2ccccc2)c(C)n2c1nc1ccccc12
24.2 µM: HCT-15
inactive: OVCAR-3 24.6 µM | CCRF-CEM 30.7 µM | T47D 12.6 µM | NCI-H460 23.8 µM | KM12 36.8 µM | UO-31 14.7 µM | OVCAR-4 17.2 µM | TK-10 29.4 µM | A549 34.2 µM | MDA-N 29.9 µM | SN12C 42.9 µM | K562 35.3 µM | SW-620 33 µM | HOP-62 32.4 µM | OVCAR-5 33.2 µM | Malme-3M 31.4 µM | NCI-H226 40.5 µM | OVCAR-8 25.9 µM | RPMI-8226 14.2 µM | HCT-116 31.5 µM | MDA-MB-435 24.4 µM | 786-0 29 µM | NCI-H23 15.4 µM | PC-3 29.9 µM | MDA-MB-231 31.9 µM | UACC-62 19.3 µM | IGROV-1 30.4 µM | MOLT-4 27.5 µM | DU-145 29.9 µM | SNB-75 26.7 µM | HT-29 20.8 µM | U-251 30.1 µM | SF-268 22.1 µM | SR 19.1 µM | SK-MEL-28 39.4 µM | HOP-92 19 µM | SF-295 37.6 µM | Hs-578T 40 µM | SNB-19 35.6 µM | SK-OV-3 20.1 µM | COLO 205 31.3 µM | CAKI-1 34.7 µM | UACC-257 38.1 µM | RXF 393 25.1 µM | M14 20.3 µM | A498 27.2 µM | SF-539 35.6 µM | MCF7 24 µM | EKVX 37.2 µM | SK-MEL-2 25.9 µM | LOX IMVI 30.3 µM | BT-549 23 µM | HL-60 16.5 µM | NCI/ADR-RES 23.4 µM

C=C(CC)C[C@@H]1C[C@]2(C(=O)OC)c3[nH]c4ccccc4c3CCN2C1=O
16.6 µM: HCT-15
inactive: OVCAR-3 14.1 µM | T47D 26.2 µM | NCI-H460 21.1 µM | KM12 24.4 µM | UO-31 17.9 µM | OVCAR-4 37.8 µM | TK-10 35.3 µM | HCC 2998 18.4 µM | A549 14.7 µM | MDA-N 17.4 µM | NCI-H522 14.6 µM | SN12C 20 µM | ACHN 26.1 µM | K562 18.9 µM | SW-620 16.4 µM | HOP-62 17.9 µM | OVCAR-5 21 µM | Malme-3M 20.7 µM | OVCAR-8 33 µM | HCT-116 14.7 µM | MDA-MB-435 19.3 µM | 786-0 16 µM | NCI-H23 18.9 µM | PC-3 16.7 µM | MDA-MB-231 24.7 µM | UACC-62 16.9 µM | IGROV-1 20.3 µM | MOLT-4 23 µM | DU-145 30.4 µM | SNB-75 21.3 µM | HT-29 19.5 µM | U-251 21.1 µM | SF-268 21.6 µM | SR 29.4 µM | SK-MEL-28 19.5 µM | HOP-92 14.7 µM | SF-295 14.7 µM | Hs-578T 14.2 µM | SNB-19 17.8 µM | SK-OV-3 21 µM | COLO 205 33.9 µM | CAKI-1 16.9 µM | UACC-257 19.2 µM | RXF 393 12.2 µM | M14 15.6 µM | A498 17.6 µM | SF-539 16.4 µM | MCF7 20.7 µM | EKVX 30.8 µM | SK-MEL-2 17.1 µM | LOX IMVI 17.3 µM | BT-549 22 µM | HL-60 23.4 µM | SK-MEL-5 17.1 µM | NCI/ADR-RES 19.5 µM

CN(C)Cc1cc(C(C)(C)C)cc(CN(C)C)c1O
inactive: OVCAR-3 28.8 µM | CCRF-CEM 21.4 µM | T47D > 100 µM | NCI-H460 36.4 µM | KM12 70.8 µM | UO-31 21.3 µM | OVCAR-4 > 100 µM | TK-10 67.3 µM | HCC 2998 17.1 µM | A549 76.6 µM | MDA-N > 100 µM | NCI-H522 43.5 µM | SN12C 73.3 µM | ACHN 65.3 µM | K562 > 100 µM | SW-620 66.1 µM | HOP-62 68.5 µM | OVCAR-5 57.3 µM | Malme-3M > 100 µM | OVCAR-8 98.4 µM | RPMI-8226 > 100 µM | HCT-116 35.6 µM | MDA-MB-435 > 100 µM | 786-0 60.1 µM | NCI-H23 > 100 µM | PC-3 77.8 µM | MDA-MB-231 92.5 µM | UACC-62 > 100 µM | IGROV-1 > 100 µM | MOLT-4 49.2 µM | DU-145 83.8 µM | SNB-75 > 100 µM | HT-29 35.8 µM | U-251 98.6 µM | SF-268 79.3 µM | SR 54.8 µM | SK-MEL-28 > 100 µM | HOP-92 > 100 µM | SF-295 44.6 µM | Hs-578T > 100 µM | SNB-19 > 100 µM | SK-OV-3 > 100 µM | COLO 205 35.8 µM | CAKI-1 > 100 µM | UACC-257 > 100 µM | RXF 393 > 100 µM | M14 > 100 µM | A498 > 100 µM | SF-539 86.7 µM | MCF7 96.2 µM | EKVX 40.6 µM | SK-MEL-2 > 100 µM | LOX IMVI 95.9 µM | BT-549 > 100 µM | SK-MEL-5 > 100 µM | NCI/ADR-RES 34.2 µM
30.4 µM: HCT-15
